Results as given in US8536168B2 (Novartis AG, priority 2007, dated 2013).
Read-outs that look alike come from different tables or passages of the source.

What was measured:
Gli-luciferase activity = assay: Reporter gene assay (RGA) in TMHh12 cells, antagonism of Gli-luciferase activity in the presence of a Smo agonist; assay type: cell-based
Description: Activity of the compounds was evaluated using a reporter gene assay (RGA) in TMHh12 cells.

[1] = target: human Smoothened receptor (Homo sapiens, UniProt Q99835); assay: Smo binding assay, displacement of radio-labeled smoothened agonist, filter binding format (human); settings: displacement of small molecule agonist of Smoothened, read-out: Human Smo bdg., IC50
Text: A Smo binding assay was developed using radio-labeled smoothened agonist for compound competition. Table 9 lists the IC50 for displacement of a small molecule agonist of Smoothened determined in a filter binding format for the mouse and human Smoothened receptor.

[2] = target: mouse Smoothened receptor (Mus musculus, UniProt P56726); assay: Smo binding assay, displacement of radio-labeled smoothened agonist, filter binding format (mouse); settings: displacement of small molecule agonist of Smoothened, read-out: Mouse Smo bdg., IC50
Text: A Smo binding assay was developed using radio-labeled smoothened agonist for compound competition.

[3] = 25 nM small molecule Smo agonist, read-out: RGA (25 nM Smo agonist) IC50
[4] = read-out: RGA (1 nM Smo agonist) IC50, 1 nM small molecule Smo agonist

human Smoothened receptor, sequence (Q99835 28-787): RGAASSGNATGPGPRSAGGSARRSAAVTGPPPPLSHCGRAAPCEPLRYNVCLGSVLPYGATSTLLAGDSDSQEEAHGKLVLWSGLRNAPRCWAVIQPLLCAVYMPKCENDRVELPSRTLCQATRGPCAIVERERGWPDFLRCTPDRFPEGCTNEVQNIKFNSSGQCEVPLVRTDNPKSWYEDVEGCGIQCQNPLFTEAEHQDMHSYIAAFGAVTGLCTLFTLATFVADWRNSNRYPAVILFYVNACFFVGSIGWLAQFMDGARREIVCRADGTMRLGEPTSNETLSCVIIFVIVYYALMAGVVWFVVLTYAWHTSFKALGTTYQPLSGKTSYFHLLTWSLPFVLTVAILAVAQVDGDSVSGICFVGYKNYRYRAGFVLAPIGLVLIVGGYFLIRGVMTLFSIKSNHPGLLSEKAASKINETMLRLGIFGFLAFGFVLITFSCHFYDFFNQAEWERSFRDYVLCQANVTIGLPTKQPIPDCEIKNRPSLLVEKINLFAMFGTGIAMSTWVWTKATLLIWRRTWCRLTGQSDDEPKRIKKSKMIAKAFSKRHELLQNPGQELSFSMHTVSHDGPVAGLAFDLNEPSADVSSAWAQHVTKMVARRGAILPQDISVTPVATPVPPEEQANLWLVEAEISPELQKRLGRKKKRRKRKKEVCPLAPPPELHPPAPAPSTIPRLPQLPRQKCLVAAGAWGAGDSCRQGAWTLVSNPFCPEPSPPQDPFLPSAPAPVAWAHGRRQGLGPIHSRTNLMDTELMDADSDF
mouse Smoothened receptor, sequence (P56726 33-793): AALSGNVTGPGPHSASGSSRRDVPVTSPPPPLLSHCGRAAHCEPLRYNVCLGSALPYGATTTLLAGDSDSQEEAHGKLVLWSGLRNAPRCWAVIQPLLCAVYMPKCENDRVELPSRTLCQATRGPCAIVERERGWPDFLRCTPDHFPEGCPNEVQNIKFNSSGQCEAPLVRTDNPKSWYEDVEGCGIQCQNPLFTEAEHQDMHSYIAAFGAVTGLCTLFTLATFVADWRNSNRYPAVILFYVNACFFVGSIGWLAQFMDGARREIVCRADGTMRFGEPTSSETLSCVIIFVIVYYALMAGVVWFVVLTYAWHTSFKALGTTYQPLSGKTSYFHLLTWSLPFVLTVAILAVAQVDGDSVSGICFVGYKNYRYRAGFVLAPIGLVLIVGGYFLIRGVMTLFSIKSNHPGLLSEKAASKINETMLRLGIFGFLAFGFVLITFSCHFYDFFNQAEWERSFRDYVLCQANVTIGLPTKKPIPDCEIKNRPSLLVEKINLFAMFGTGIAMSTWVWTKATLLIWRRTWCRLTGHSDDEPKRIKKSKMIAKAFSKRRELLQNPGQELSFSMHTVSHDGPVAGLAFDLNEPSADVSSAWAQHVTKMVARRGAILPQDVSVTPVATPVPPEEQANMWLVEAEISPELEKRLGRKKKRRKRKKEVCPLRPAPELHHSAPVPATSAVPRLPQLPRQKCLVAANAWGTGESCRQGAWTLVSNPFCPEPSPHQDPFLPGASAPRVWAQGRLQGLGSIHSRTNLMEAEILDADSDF

Row | SMILES | IC50 (Gli-luciferase activity; [3]) [µM] | IC50 (Gli-luciferase activity; [4]) [µM] | IC50 [1] [µM] | IC50 [2] [µM]
1 | N#Cc1ccc(N2CCC(c3cn(Cc4ccccc4)c4ccccc34)CC2)nc1 [Example 100] | 1 to 10 | 0.1 to 1 | 0.1 to 1 | 0.1 to 1
2 | O=C1CCCN1c1ccc(N2CCN(c3nnc(Cc4ccccc4)c4ccccc34)CC2)nc1 [Example 131] | 0.1 to 1 | 0.1 to 1 | < 0.1 | < 0.1
3 | O=C(O)c1ccc(N2CCN(c3nnc(Cc4ccccc4)c4ccccc34)CC2)cc1 [Example 16] | 1 to 10 | 1 to 10 | 1 to 10 | 1 to 10
4 | N#Cc1ccc(N2CCN(c3cnc(Cc4ccccc4)c4ccccc34)CC2)nc1 [Example 79, 6-[4-(1-Benzyl-isoquinolin-4-yl)-piperazin-1-yl]-nicotinonitrile] | 0.1 to 1 | 0.1 to 1 | 1 to 10 | 0.1 to 1
5 | CCOC(=O)c1ccc(N2CCN(c3nnc(Cc4ccc(F)cc4)c4ccccc34)CC2)nc1 [Example 183] | 1 to 10 | 0.1 to 1 | < 0.1 | < 0.1
6 | COC(=O)c1ccc(N2CCN(c3nnc(Cc4ccccc4)c4ccccc34)CC2)nn1 [Example 139] | 1 to 10 | 0.1 to 1 | < 0.1 | < 0.1
7 | CCOC(=O)c1ccc(N2CCN(c3nnc(Cc4ccccc4Cl)c4ccccc34)[C@@H](C)C2)nc1 [Example 188] | 0.1 to 1 | < 0.1 | < 0.1 | < 0.1
8 | CC(=O)NCc1ccc(N2CCN(c3nnc(Cc4ccccc4)c4ccccc34)[C@@H](C)C2)nc1 [Example 216] | < 0.1 | < 0.1 | < 0.1 | < 0.1
9 | CC(C)CC(=O)NCc1ccc(N2CCN(c3nnc(Cc4ccccc4)c4ccccc34)CC2)nc1 [Example 210] | < 0.1 | < 0.1 | < 0.1 | < 0.1
10 | N#Cc1ccc(N2CCN(c3nnc(Cc4ccc(Cl)cc4Cl)c4ccccc34)CC2)nc1 [Example 177] | 0.1 to 1 | 0.1 to 1 | < 0.1 | < 0.1
11 | CC(C)OC(=O)NCc1ccc(N2CCN(c3nnc(Cc4ccccc4)c4ccccc34)CC2)nc1 [Example 211] | 0.1 to 1 | < 0.1 | < 0.1 | < 0.1
12 | COc1ccc(Cc2nnc(N3CCN(c4ccc(C#N)cn4)CC3)c3ccccc23)cc1OC [Example 58] |  | 1 to 10 | 1 to 10 | 1 to 10

Other lines, results leading:

Row | IC50 (Gli-luciferase activity; [3]) [µM] | IC50 (Gli-luciferase activity; [4]) [µM] | IC50 [1] [µM] | IC50 [2] [µM] | SMILES
13 | 1 to 10 | < 0.1 | 0.1 to 1 | 0.1 to 1 | FC(F)(F)c1ccc(N2CCN(c3nnc(Cc4ccccc4)c4occc34)CC2)nc1 [Example 245, 7-Benzyl-4-[4-(5-trifluoromethyl-pyridin-2-yl)-piperazin-1-yl]-furo[2,3-d]pyridazine]
14 | 0.1 to 1 | < 0.1 | < 0.1 | < 0.1 | CN(CCO)C(=O)c1ccc(N2CCN(c3nnc(Cc4ccc(F)cc4)c4ccccc34)CC2)nc1 [Example 198, 6-{4-[4-(4-Fluoro-benzyl)-phthalazin-1-yl]-piperazin-1-yl}-N-(2-hydroxyethyl)-N-methyl-nicotinamide]
15 | 0.1 to 1 | < 0.1 | < 0.1 | < 0.1 | CC(C)(NC(=O)OCc1ccccc1)c1ccc(N2CCN(c3nnc(Cc4ccccc4)c4ccccc34)CC2)nc1 [Example 123]
16 | 0.1 to 1 | < 0.1 | < 0.1 | < 0.1 | C[C@H]1CN(c2nnc(Cc3ccccc3)c3ccccc23)CCN1c1ccc(C#N)cn1 [Example 143, 6-[(S)-4-(4-Benzyl-phthalazin-1-yl)-2-methyl-piperazin-1-yl]-nicotinonitrile]
17 | 0.1 to 1 | < 0.1 | < 0.1 | < 0.1 | CN(CCO)C(=O)c1ccc(N2CCN(c3nnc(Cc4ccc(Cl)c(Cl)c4)c4ccccc34)CC2)nc1 [Example 201]
18 | < 0.1 | < 0.1 | < 0.1 | < 0.1 | OC(c1ccc(N2CCN(c3nnc(Cc4ccccc4)c4ccccc34)CC2)nc1)(C(F)(F)F)C(F)(F)F [Example 110]
19 | 0.1 to 1 | < 0.1 | 0.1 to 1 | < 0.1 | O=C(c1cnc(N2CCN(c3nnc(Cc4ccccc4)c4ccccc34)CC2)nc1)N1CCOCC1 [Example 54bb]
20 | 0.1 to 1 | < 0.1 | 0.1 to 1 | < 0.1 | N#Cc1ccc(N2CCN(c3nnc(Cc4cccc(Cl)c4)c4ccccc34)CC2)nc1 [Example 60]
21 | 0.1 to 1 | < 0.1 | 0.1 to 1 | < 0.1 | OC1CCN(Cc2ccc(N3CCN(c4nnc(Cc5ccccc5)c5ccccc45)CC3)nc2)C1 (stereo not shown) [Example 223]
22 | < 0.1 | < 0.1 | 0.1 to 1 | 0.1 to 1 | COCC(=O)NCc1ccc(N2CCN(c3nnc(Cc4ccccc4)c4ccccc34)CC2)nc1 [Example 208]
23 | 0.1 to 1 | < 0.1 | 0.1 to 1 | 0.1 to 1 | CN(CCO)C(=O)c1cnc(N2CCN(c3nnc(Cc4ccccc4)c4ccccc34)CC2)nc1 [Example 54cc]
